The values that follow come from patent US11292801B2, “Calpain modulators and therapeutic uses thereof” (Blade Therapeutics, Inc., priority 2016, dated 2022).

The target in one assay is T1, Human Calpain 1/NS1 (Homo sapiens, UniProt P07384).
T1 sequence (P07384 1-714): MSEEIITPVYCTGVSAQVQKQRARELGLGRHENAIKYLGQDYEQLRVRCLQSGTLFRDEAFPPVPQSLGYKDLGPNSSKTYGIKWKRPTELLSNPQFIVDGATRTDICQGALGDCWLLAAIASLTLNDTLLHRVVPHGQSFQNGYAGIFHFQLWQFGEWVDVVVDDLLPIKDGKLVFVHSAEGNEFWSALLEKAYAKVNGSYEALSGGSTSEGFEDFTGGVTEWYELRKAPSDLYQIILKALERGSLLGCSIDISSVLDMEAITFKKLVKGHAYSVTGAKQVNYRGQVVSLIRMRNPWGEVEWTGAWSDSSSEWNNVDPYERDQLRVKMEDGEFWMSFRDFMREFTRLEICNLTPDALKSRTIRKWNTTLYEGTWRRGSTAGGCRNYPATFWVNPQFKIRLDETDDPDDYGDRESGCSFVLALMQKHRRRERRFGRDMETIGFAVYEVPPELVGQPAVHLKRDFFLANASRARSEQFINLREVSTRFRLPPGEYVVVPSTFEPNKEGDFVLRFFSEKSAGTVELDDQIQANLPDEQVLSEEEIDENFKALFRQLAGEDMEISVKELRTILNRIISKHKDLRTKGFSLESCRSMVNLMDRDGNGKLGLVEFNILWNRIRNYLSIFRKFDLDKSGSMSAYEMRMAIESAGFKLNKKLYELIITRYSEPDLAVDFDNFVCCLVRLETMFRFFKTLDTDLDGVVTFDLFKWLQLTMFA
T1 sequence (P04632 1-268 partner): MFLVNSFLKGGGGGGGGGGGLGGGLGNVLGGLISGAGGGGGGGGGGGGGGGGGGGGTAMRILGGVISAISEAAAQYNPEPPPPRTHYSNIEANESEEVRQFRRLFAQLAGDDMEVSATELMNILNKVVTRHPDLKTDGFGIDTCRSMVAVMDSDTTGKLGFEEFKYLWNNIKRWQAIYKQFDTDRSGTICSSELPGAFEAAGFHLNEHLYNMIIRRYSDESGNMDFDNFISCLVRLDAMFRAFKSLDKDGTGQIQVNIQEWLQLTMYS
As to the kind of experiment: Biochemical inhibition of calpain 1, continuous fluorescence (FRET substrate) assay. As to conditions: mean, read-out: Human Calpain 1/NS1 IC50 (nM)_MEAN. The procedure: (§1) Calpain 1, 2, and 9 activity and inhibition thereof are assessed by means of a continuous fluorescence assay. The SensoLyte 520 Calpain substrate (Anaspec Inc) is optimized for detecting calpain activity. This substrate contains a novel internally quenched 5-FAM/QXL™ 520 FRET pair. Calpains 1, 2, and 9 cleave the FRET substrate into two separate fragments resulting in an increase of 5-FAM fluorescence that is proportional to calpain activity.
(§2) Assays are typically setup in black 384-well plates using automated liquid handling as follows. Calpain assay base buffer typically contains 50 mM Tris, pH˜7.5, 100 mM NaCl and 1 mM DTT. Inhibitors are serially diluted in DMSO and used to setup 2× mixtures with calpains in the aforementioned buffer. After incubation at ambient temperature (25C), the reaction is initiated by adding a 2× mix of the fluorescent peptide substrate and CaCl2) (required for in-situ calpain activation) in the same buffer. Reaction progress curve data are typically collected for 10 min using excitation/emission wavelengths of 490 nm/520 nm on SpectraMax i3× or the FLIPR-Tetra plate readers (Molecular Devices Inc). Reaction rates were calculated from progress curve slopes typically over 1-5 min. Dose response curves (rate vs. log inhibitor concentration) were typically fit to a 4-parameter logistic function to extract IC50 values.

The target in the next assay is T2, Human Calpain 9/NS1 (Homo sapiens, UniProt O14815).
T2 sequence (O14815 1-690): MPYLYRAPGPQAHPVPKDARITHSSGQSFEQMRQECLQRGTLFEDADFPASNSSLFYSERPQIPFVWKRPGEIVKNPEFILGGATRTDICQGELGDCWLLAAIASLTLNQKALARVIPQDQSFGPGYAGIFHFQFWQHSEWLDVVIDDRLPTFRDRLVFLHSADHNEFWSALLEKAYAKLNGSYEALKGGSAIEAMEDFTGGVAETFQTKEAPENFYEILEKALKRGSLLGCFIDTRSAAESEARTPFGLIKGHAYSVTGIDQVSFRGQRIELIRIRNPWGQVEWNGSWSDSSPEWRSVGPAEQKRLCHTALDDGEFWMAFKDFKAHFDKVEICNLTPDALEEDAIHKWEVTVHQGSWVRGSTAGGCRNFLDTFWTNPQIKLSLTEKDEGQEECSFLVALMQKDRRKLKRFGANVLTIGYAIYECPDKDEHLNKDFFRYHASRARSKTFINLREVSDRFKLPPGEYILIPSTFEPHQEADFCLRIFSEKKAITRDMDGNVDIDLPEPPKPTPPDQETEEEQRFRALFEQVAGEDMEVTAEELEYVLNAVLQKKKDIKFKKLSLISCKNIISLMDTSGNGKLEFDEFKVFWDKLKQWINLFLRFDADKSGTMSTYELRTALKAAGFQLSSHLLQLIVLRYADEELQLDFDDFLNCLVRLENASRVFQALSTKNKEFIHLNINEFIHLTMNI
T2 sequence (P04632 1-268 partner): T1 sequence (P04632 1-268 partner)
As to the kind of experiment: Biochemical inhibition of calpain 9, continuous fluorescence (FRET substrate) assay. As to conditions: mean, read-out: Human Calpain 9/NS1 IC50 (nM)_MEAN. As to the method: as §1, §2

A further assay deals with T3, Human Calpain 2/NS1 (Homo sapiens, UniProt P17655).
T3 sequence (P17655 1-700): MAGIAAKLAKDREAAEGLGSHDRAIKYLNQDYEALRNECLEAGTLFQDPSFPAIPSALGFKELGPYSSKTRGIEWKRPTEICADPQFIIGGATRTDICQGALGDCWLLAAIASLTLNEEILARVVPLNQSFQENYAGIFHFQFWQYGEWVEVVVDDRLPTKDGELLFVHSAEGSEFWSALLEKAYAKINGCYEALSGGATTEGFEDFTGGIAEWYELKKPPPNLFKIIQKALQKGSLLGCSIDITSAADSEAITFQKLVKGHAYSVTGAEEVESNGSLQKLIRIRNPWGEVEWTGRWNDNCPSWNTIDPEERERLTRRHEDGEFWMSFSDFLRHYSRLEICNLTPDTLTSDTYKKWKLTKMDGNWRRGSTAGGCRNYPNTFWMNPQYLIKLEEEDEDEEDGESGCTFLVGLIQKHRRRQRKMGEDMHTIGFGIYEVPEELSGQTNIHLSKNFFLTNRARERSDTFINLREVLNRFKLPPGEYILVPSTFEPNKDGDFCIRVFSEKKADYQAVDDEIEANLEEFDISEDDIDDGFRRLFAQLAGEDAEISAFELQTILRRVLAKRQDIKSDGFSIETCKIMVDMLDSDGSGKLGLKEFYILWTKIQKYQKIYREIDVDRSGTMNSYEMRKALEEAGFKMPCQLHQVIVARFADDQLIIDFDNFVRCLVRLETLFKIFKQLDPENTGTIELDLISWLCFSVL
T3 sequence (P04632 1-268 partner): T1 sequence (P04632 1-268 partner)
The experiment in a line: Biochemical inhibition of calpain 2, continuous fluorescence (FRET substrate) assay. As to conditions: mean, read-out: Human Calpain 2/NS1 IC50 (nM)_MEAN. As to the method: as §1, §2

Consider `O=C[C@@H]1Cc2cccc(c2)C=CCCOc2cccc(c2)-c2ncccc2C(=O)N1` [Compound 36, (S)-3-Oxo-12-oxa-4-aza-2(2,3)-pyridina-1,7(1,3)-dibenzenacyclododecaphan-8-ene-5-carbaldehyde], for which the IC50 on Human Calpain 1/NS1, at Human Calpain 9/NS1 and at Human Calpain 2/NS1 was less than 3000 nM throughout.

Take `O=C[C@@H]1CCCCCCOCc2ccccc2C(=O)N1` [Compound 42, (S)-11-Oxo-1,3,4,5,6,7,8,9,10,11-decahydrobenzo[c][1]oxa[6]azacyclotridecine-9-carbaldehyde]: the IC50 was greater than 10000 nM at Human Calpain 1/NS1, less than 3000 nM at Human Calpain 9/NS1 and less than 3000 nM on Human Calpain 2/NS1.

In the case of `O=C[C@@H]1Cc2ccccc2CCCOCc2ccccc2C(=O)N1` [Compound 31, (S)-17-Oxo-5,7,8,9,14,15,16,17-octahydrodibenzo[c,i][1]oxa[6]aza-cyclotridecine-15-carbaldehyde], the IC50 at Human Calpain 1/NS1, at Human Calpain 9/NS1 and at Human Calpain 2/NS1 was less than 3000 nM in each case.

Regarding “(S)-2-(1^3-methyl-11-oxo-1^1H-3-oxa-10-aza-1(1,5)-pyrazola-2(1,3)-benzenacycloundecaphane-9-yl)-2-oxoacetamide [Compound 143]”, the IC50 on Human Calpain 1/NS1, on Human Calpain 9/NS1 and on Human Calpain 2/NS1 was less than 3000 nM throughout.

On to `CC(C)CCNC(=O)C(=O)C1CCCCOCCOCc2ccccc2C(=O)N1` (centres unmarked) [Compound 90, N-isopentyl-2-oxo-2-(12-oxo-1,3,4,6,7,8,9,10,11,12-decahydrobenzo[f][1,4]dioxa[9]azacyclotetradecin-10-yl)acetamide], for which the figures for the IC50 on Human Calpain 1/NS1, on Human Calpain 9/NS1 and on Human Calpain 2/NS1 were greater than 10000 nM, less than 3000 nM and 3000 to 10000 nM, respectively.

For `O=C(NCCc1ccc(Cl)cc1)C(=O)[C@@H]1C/C=C\COCCOCc2ccccc2C(=O)N1` [Compound 77, (S,Z)—N-(4-chlorophenethyl)-2-oxo-2-(12-oxo-1,3,4,6,9,10,11,12-octahydrobenzo[f][1,4]dioxa[9]azacyclotetradecin-10-yl)acetamide], the IC50 at Human Calpain 1/NS1 was 3000 to 10000 nM; on Human Calpain 9/NS1 it was less than 3000 nM; on Human Calpain 2/NS1, 3000 to 10000 nM.

`O=C(NCc1ccc(Cl)cc1Cl)C(=O)C1CCCCOCCOCc2ccccc2C(=O)N1` (centres unmarked) [Compound 96, N-(2,4-dichlorobenzyl)-2-oxo-2-(12-oxo-1,3,4,6,7,8,9,10,11,12-decahydrobenzo[f][1,4]dioxa[9]azacyclotetradecin-10-yl)acetamide]: the IC50 at Human Calpain 1/NS1 is greater than 10000 nM; at Human Calpain 9/NS1, 3000 to 10000 nM; on Human Calpain 2/NS1, greater than 10000 nM.

For `NC(=O)C(=O)[C@@H]1CCCCOCCOCc2ccccc2C(=O)N1` [Compound 57, (S)-2-Oxo-2-(12-oxo-1,3,4,6,7,8,9,10,11,12-decahydrobenzo[f][1,4]dioxa[9]azacyclotetradecin-10-yl)acetamide], the values for the IC50 at Human Calpain 1/NS1, on Human Calpain 9/NS1 and at Human Calpain 2/NS1 were 3000 to 10000 nM, less than 3000 nM and less than 3000 nM, respectively.

Turning to `O=C[C@@H]1CC=CCOCCCCOCc2ccccc2C(=O)N1` [Compound 12, (S)-14-Oxo-1,3,4,5,6,8,11,12,13,14-decahydrobenzo[h][1,6]dioxa[11]aza-cyclohexadecine-12-carbaldehyde], the IC50 at Human Calpain 1/NS1 is less than 3000 nM; at Human Calpain 9/NS1, 3000 to 10000 nM; on Human Calpain 2/NS1, less than 3000 nM.

For `O=C(NCc1ccc(Cl)c(Cl)c1)C(=O)C1CCCCOCCOCc2ccccc2C(=O)N1` (centres unmarked) [Compound 83, N-(3,4-dichlorobenzyl)-2-oxo-2-(12-oxo-1,3,4,6,7,8,9,10,11,12-decahydrobenzo[f][1,4]dioxa[9]azacyclotetradecin-10-yl)acetamide], the IC50 at Human Calpain 1/NS1 is greater than 10000 nM; on Human Calpain 9/NS1, less than 3000 nM; at Human Calpain 2/NS1, 3000 to 10000 nM.

`Cn1cc2c(n1)-c1cccc(c1)OCCCCC[C@@H](C(=O)C(N)=O)NC2=O` [Compound 142, (S)-2-(1′-methyl-11-oxo-1^1H-3-oxa-10-aza-1(3,4)-pyrazola-2(1,3)-benzenacycloundecaphane-9-yl)-2-oxoacetamide]: the IC50 was greater than 10000 nM at Human Calpain 1/NS1, less than 3000 nM at Human Calpain 9/NS1 and greater than 10000 nM at Human Calpain 2/NS1.

Turning to `O=C(NC1CCCC1)C(=O)C1CCCCOCCOCc2ccccc2C(=O)N1` (centres unmarked) [Compound 109, N-cyclopentyl-2-oxo-2-(12-oxo-1,3,4,6,7,8,9,10,11,12-decahydrobenzo[f][1,4]dioxa[9]azacyclotetradecin-10-yl)acetamide], the IC50 at Human Calpain 1/NS1 and at Human Calpain 2/NS1 was greater than 10000 nM in each case.

As for `CC(C)NC(=O)C(=O)[C@@H]1C/C=C\COCCOCc2ccccc2C(=O)N1` [Compound 58, (S,Z)—N-isopropyl-2-oxo-2-(12-oxo-1,3,4,6,9,10,11,12-octahydrobenzo[f][1,4]dioxa[9]azacyclotetradecin-10-yl)acetamide], the IC50 on Human Calpain 1/NS1, on Human Calpain 9/NS1 and on Human Calpain 2/NS1 was greater than 10000 nM each time.

As to `O=C[C@@H]1CCCCCOc2cccc(c2)-c2ccccc2C(=O)N1` [Compound 30, (S)-11-Oxo-3-oxa-10-aza-1(1,2),2(1,3)-dibenzenacycloundecaphane-9-carbaldehyde], the IC50 on Human Calpain 1/NS1, at Human Calpain 9/NS1 and on Human Calpain 2/NS1 was less than 3000 nM in each case.

As for `Cc1cccc(C)c1NC(=O)C(=O)[C@@H]1C/C=C\COCCOCc2ccccc2C(=O)N1` [Compound 61, (S,Z)—N-(2,6-dimethylphenyl)-2-oxo-2-(12-oxo-1,3,4,6,9,10,11,12-octahydrobenzo[f][1,4]dioxa[9]azacyclotetradecin-10-yl)acetamide], the IC50 on Human Calpain 1/NS1, at Human Calpain 9/NS1 and at Human Calpain 2/NS1 was greater than 10000 nM each time.
